Laboratory results as given in patent US20050124667A1, “Oxamide inhibitors of plasminogen activator inhibitor-1” (priority 2003, published 2005).

| SMILES | melting point [°C] |
| --- | --- |
| Cc1ccc(NC(=O)C(=O)Nc2cc(Cl)cc(Cl)c2O)c(O)c1 [Example 3, N-(3,5-Dichloro-2-hydroxy-phenyl)-N′-(2-hydroxy-4-methyl-phenyl)-oxalamide] | 283 |
| Cc1cccc(O)c1NC(=O)C(=O)Nc1cc(Cl)cc(Cl)c1O [Example 10, N-(3,5-Dichloro-2-hydroxy-phenyl)-N′-(2-hydroxy-6-methyl-phenyl)-oxalamide] | 260 |
| O=C(Nc1cccc(Cl)c1O)C(=O)Nc1cc(Cl)cc(Cl)c1O [Example 19, N-(3-Chloro-2-hydroxy-phenyl)-N′-(3,5-dichloro-2-hydroxy-phenyl)-oxalamide] | 296 |
| N#Cc1ccc(O)c(NC(=O)C(=O)Nc2cc(Cl)cc(Cl)c2O)c1 [Example 15, N-(5-Cyano-2-hydroxy-phenyl)-N′-(3,5-dichloro-2-hydroxy-phenyl)-oxalamide] | 298 |
| O=C(Nc1cc([N+](=O)[O-])ccc1O)C(=O)Nc1cc(Cl)cc(Cl)c1O [Example 4, N-(3,5-Dichloro-2-hydroxy-phenyl)-N′-(2-hydroxy-5-nitro-phenyl)-oxalamide] | 386 |
| COc1ccc(O)c(NC(=O)C(=O)Nc2cc(Cl)cc(Cl)c2O)c1 [Example 17, N-(3,5-Dichloro-2-hydroxy-phenyl)-N′-(2-hydroxy-5-methoxy-phenyl)-oxalamide] | 273 |
| O=C(Nc1cc2ccccc2cc1O)C(=O)Nc1cc(Cl)cc(Cl)c1O [Example 6, N-(3,5-Dichloro-2-hydroxy-phenyl)-N′-(3-hydroxy-naphthalen-2-yl)-oxalamide] | 313 |
| COC(=O)c1ccc(NC(=O)C(=O)Nc2cc(Cl)cc(Cl)c2O)c(O)c1 [Example 12, 4-[(3,5-Dichloro-2-hydroxy-phenylaminooxalyl)-amino]-3-hydroxy-benzoic Acid Methyl Ester] | 271 |
| O=C(Nc1cc(-c2ccccc2)ccc1O)C(=O)Nc1cc(Cl)cc(Cl)c1O [Example 5, N-(3,5-Dichloro-2-hydroxy-phenyl)-N′-(4-hydroxy-biphenyl-3-yl)-oxalamide] | 288 |
| O=C(Nc1cc(F)ccc1O)C(=O)Nc1cc(Cl)cc(Cl)c1O [Example 18, N-(3,5-Dichloro-2-hydroxy-phenyl)-N′-(5-fluoro-2-hydroxy-phenyl)-oxalamide] | 297 |
| O=C(Nc1cc(Cl)ccc1O)C(=O)Nc1cc(Cl)cc(Cl)c1O [Example 7, N-(5-Chloro-2-hydroxy-phenyl)-N′-(3,5-dichloro-2-hydroxy-phenyl)-oxalamide] | 311 |
| O=C(Nc1cc(Cl)cc(Cl)c1O)C(=O)Nc1c(O)ccc2ccccc12 [Example 8, N-(3,5-Dichloro-2-hydroxy-phenyl)-N′-(2-hydroxy-naphthalen-1-yl)-oxalamide] | 265 |
| CCC(C)(C)c1ccc(NC(=O)C(=O)Nc2cc(Cl)cc(Cl)c2O)c(O)c1 [Example 9, N-(3,5-Dichloro-2-hydroxy-phenyl)-N′-[4-(1,1-dimethyl-propyl)-2-hydroxy-phenyl]-oxalamide] | 260 |

Results, then the molecule that gave them:

| melting point [°C] | SMILES |
| --- | --- |
| 302 | O=C(Nc1cc(Cl)cc(Cl)c1O)C(=O)Nc1ccc(F)c(F)c1O [Example 20, N-(3,5-Dichloro-2-hydroxy-phenyl)-N′-(3,4-difluoro-2-hydroxy-phenyl)-oxalamide] |
| 205 | CN(C)CCCNC(=O)c1ccc(O)c(NC(=O)C(=O)Nc2cc(Cl)cc(Cl)c2O)c1 [Example 35, N-(3,5-Dichloro-2-hydroxy-phenyl)-N′-[5-(3-dimethylamino-propylcarbamoyl)-2-hydroxy-phenyl]-oxalamide] |
| 254 | CCOC(=O)C(Cc1ccccc1)NC(=O)c1ccc(O)c(NC(=O)C(=O)Nc2cc(Cl)cc(Cl)c2O)c1 (stereo in doubt) [Example 32, 2(2R)-{3-[(3,5-Dichloro-2-hydroxy-phenylaminooxalyl)-amino]-4-hydroxy-benzoylamino}-3-phenyl-propionic acid ethyl ester] |
| 281 | O=C(Nc1cc(C(F)(F)F)ccc1O)C(=O)Nc1cc(Cl)cc(Cl)c1O [Example 21, N-(3,5-Dichloro-2-hydroxy-phenyl)-N′-(2-hydroxy-5-trifluoromethyl-phenyl)-oxalamide] |
| 175 | O=C(Nc1cc(C(=O)NCCCn2ccnc2)ccc1O)C(=O)Nc1cc(Cl)cc(Cl)c1O [Example 36, N-(3,5-Dichloro-2-hydroxy-phenyl)-N′-[2-hydroxy-5-(3-imidazol-1-yl-propylcarbamoyl)-phenyl]-oxalamide] |
| 225 | O=C(Nc1ccc(C(=O)NCCCn2ccnc2)cc1O)C(=O)Nc1cc(Cl)cc(Cl)c1O [Example 43, N-(3,5-Dichloro-2-hydroxy-phenyl)-N′-[2-hydroxy-4-(3-imidazol-1-yl-propylcarbamoyl)-phenyl]-oxalamide] |
| 323 | O=C(Nc1ccc(C(=O)O)cc1O)C(=O)Nc1cc(Cl)cc(Cl)c1O [Example 24, 4-[(3,5-Dichloro-2-hydroxy-phenylaminooxalyl)-amino]-3-hydroxy-benzoic Acid] |
| 270 | CCOC(=O)c1ccc(O)c(NC(=O)C(=O)Nc2cc(Cl)cc(Cl)c2O)c1 [Example 25, 3-[(3,5-Dichloro-2-hydroxy-phenylaminooxalyl)-amino]-4-hydroxy-benzoic Acid Ethyl Ester] |
| 250 | O=C(Nc1cc(C(=O)NCc2ccncc2)ccc1O)C(=O)Nc1cc(Cl)cc(Cl)c1O [Example 33, N-(3,5-Dichloro-2-hydroxy-phenyl)-N′-{2-hydroxy-5-[(pyridin-4-ylmethyl)-carbamoyl]-phenyl}-oxalamide] |
| 220 | CN1CCCC1CCNC(=O)c1ccc(O)c(NC(=O)C(=O)Nc2cc(Cl)cc(Cl)c2O)c1 (racemic) [Example 34, N-(3,5-Dichloro-2-hydroxy-phenyl)-N′-{2-hydroxy-5-[2-(1-methyl-pyrrolidin-2-yl)-ethylcarbamoyl]-phenyl}-oxalamide (Racemic)] |
| 232 | CN1CCN(CCCNC(=O)c2ccc(O)c(NC(=O)C(=O)Nc3cc(Cl)cc(Cl)c3O)c2)CC1 [Example 30, N-(3,5-Dichloro-2-hydroxy-phenyl)-N′-{2-hydroxy-5-[3-(4-methyl-piperazin-1-yl)-propylcarbamoyl]-phenyl}-oxalamide] |
